The values below come from US20090163516A1, “CARBOXAMIDES FOR CONTROLLING UNDESIRED MICRO-ORGANISMS IN PLANT PROTECTION” (Bayer Cropscience AG, priority 2005, published 2009).

Molecules are shown by their SMILES.

One data set deals with Botrytis cinerea. Kind of data set: Botrytis test (bean)/protective. Format: in vivo. The settings on record: 48 h, young bean plants sprayed, size of infected areas two days after inoculation, read-out: Efficacy in %. The protocol: (§1) To produce a suitable preparation of active compound, 1 part by weight of active compound is mixed with the stated amounts of solvents and emulsifier, and the concentrate is diluted with water to the desired concentration.
To test for protective activity, young plants are sprayed with the active compound preparation at the stated application rate. After the spray coating has dried on, two small pieces of agar colonized by Botrytis cinerea are placed onto each leaf. The inoculated plants are placed in a dark chamber at about 20° C. and 100% relative atmospheric humidity.
Two days after the inoculation, the size of the infected areas on the leaves is evaluated. 0% means an efficacy which corresponds to that of the control, whereas an efficacy of 100% means that no infection is observed.
Turning to `O=C(Nc1ncncc1-c1ccc(Cl)c(Cl)c1)c1ccccc1I` [drawing 101], the pest or weed control at 500 ppm was determined as 96%. The same measure, in the same setting: under `O=C(Nc1ncncc1-c1ccc(OC(F)(F)F)cc1)c1ccccc1I` [drawing 104] stands 89%.

Regarding `O=C(Nc1ncncc1-c1ccc(Cl)c(Cl)c1)c1ccccc1C(F)(F)F` [drawing 100], the pest or weed control at 500 ppm was found to be 80%. For `O=C(Nc1ncncc1-c1ccc(OC(F)(F)F)cc1)c1ccccc1Cl` [drawing 106], the pest or weed control at 500 ppm is 79%.

On to `O=C(Nc1ncncc1-c1ccc(Br)cc1)c1ccccc1Cl` [drawing 102], for which the pest or weed control at 500 ppm is 99%. On to `Cc1nc(C(F)(F)F)c(C(=O)Nc2ncncc2-c2ccc(Cl)c(Cl)c2)s1` [drawing 99], for which the pest or weed control at 500 ppm was determined as 91%. On the same count and under the same terms, under `O=C(Nc1ncncc1-c1ccc(C(F)(F)F)cc1)c1ccccc1Cl` [drawing 105] stands 100%; under `O=C(Nc1ncncc1-c1ccc(Cl)c(Cl)c1)c1ccccc1Cl` [drawing 103], 91%.

The test system of the next data set is Alternaria solani. Kind of data set: Alternaria test (tomato)/protective. Format: in vivo. The following applies: 168 h, young tomato plants sprayed, inoculated one day after treatment, evaluation 7 days after inoculation, read-out: Efficacy in %. As for the experimental part:
(§2) To produce a suitable preparation of active compound, 1 part by weight of active compound is mixed with the stated amounts of solvent and emulsifier, and the concentrate is diluted with water to the desired concentration.
To test for protective activity, young tomato plants are sprayed with the active compound preparation at the stated application rate. One day after the treatment, the plants are inoculated with a spore suspension of Alternaria solani and then remain at 100% relative humidity and 20° C. for 24 h. The plants then remain at 96% relative atmospheric humidity and a temperature of 20° C.
(§3) Evaluation is carried out 7 days after the inoculation. 0% means an efficacy which corresponds to that of the control, whereas an efficacy of 100% means that no infection is observed.
As for `O=C(Nc1ncncc1-c1ccc(OC(F)(F)F)cc1)c1ccccc1I` [drawing 83], the pest or weed control at 500 ppm came to 100%. As to `O=C(c1ccccc1Cl)N(C(=O)c1ccccc1Cl)c1ncncc1-c1ccc(OC(F)(F)F)cc1`, the pest or weed control at 500 ppm worked out at 70%. On the same count and under the same terms, to `O=C(c1ccccc1Cl)N(C(=O)c1ccccc1Cl)c1ncncc1-c1ccc(Cl)c(Cl)c1` [drawing 87] belongs 95%; to `O=C(Nc1ncncc1-c1ccc(OC(F)(F)F)cc1)c1ccccc1Cl` [drawing 89], 95%. As for `O=C(Nc1ncncc1-c1ccc(Cl)c(Cl)c1)c1ccccc1Cl` [drawing 82], the pest or weed control at 500 ppm is 100%. The same measure, in the same setting: under `O=C(Nc1ncncc1-c1ccc(Cl)cc1)c1ccccc1C(F)(F)F` [drawing 78] stands 100%; under `O=C(c1ccccc1Cl)N(C(=O)c1ccccc1Cl)c1ncncc1-c1ccc(Br)cc1` [drawing 86], 71%. Still for that read-out and setting: under `Cc1ccsc1C(=O)Nc1ncncc1-c1ccc(OC(F)(F)F)cc1` stands 70%. On the same count and under the same terms, under `O=C(c1ccccc1Cl)N(C(=O)c1ccccc1Cl)c1ncncc1-c1ccc(C(F)(F)F)cc1` [drawing 84] stands 100%. For `O=C(Nc1ncncc1-c1ccc(C(F)(F)F)cc1)c1ccccc1Cl` [drawing 85], the pest or weed control at 500 ppm was found to be 100%. With `Cn1cc(C(=O)Nc2ncncc2-c2ccc(Cl)c(Cl)c2)c(C(F)(F)F)n1` [drawing 90], the pest or weed control at 500 ppm came to 95%. Same read-out and setting: under `O=C(Nc1ncncc1-c1ccc(Br)cc1)c1ccccc1Cl` [drawing 81] stands 100%; under `O=C(Nc1ncncc1-c1ccc(Cl)c(Cl)c1)c1ccccc1I` [drawing 80], 100%. Take `O=C(Nc1ncncc1-c1ccc(Br)cc1)c1ccccc1I` [drawing 79]: the pest or weed control at 500 ppm came out at 100%.

System in another data set: not listed separately
Kind of data set: logP determination by HPLC on a reverse-phase column (EEC Directive 79/831 Annex V.A8). Format: physicochemical. The settings on record: reverse-phase C18 HPLC column; pH 2.3; HPLC reverse-phase C 18, 43° C., 0.1% aqueous phosphoric acid and acetonitrile. As for the experimental part: The determination is carried out in the acidic range at pH 2.3 using the mobile phases 0.1% aqueous phosphoric acid and acetonitrile; linear gradient from 10% acetonitrile to 90% acetonitrile.
In the case of `O=C(c1ccccc1Cl)N(C(=O)c1ccccc1Cl)c1ncncc1-c1ccc(Cl)c(Cl)c1` [Example 15], the chromatographic logP turned out to be 2.46. As for `O=C(Nc1ncncc1-c1ccc(C(F)(F)F)cc1)c1ccccc1Cl` [Example 13], the chromatographic logP amounted to 2.62. For `Nc1ncncc1-c1ccc(Cl)c(Cl)c1` [III-1, 5-(3,4-dichlorophenyl)-4-pyrimidinylamine], the chromatographic logP stood at 0.87.

`O=C(Nc1ncncc1-c1ccc(Cl)c(Cl)c1)c1ccccc1Cl` [Example 10] registered a chromatographic logP of 2.73. Same read-out and setting: to `Cn1cc(C(=O)Nc2ncncc2-c2ccc(Cl)c(Cl)c2)c(C(F)(F)F)n1` [Example 19] belongs 2.46. Still for that read-out and setting: under `Cc1nc(C(F)(F)F)c(C(=O)Nc2ncncc2-c2ccc(Cl)c(Cl)c2)s1` [Example 2, N-[5-(3,4-dichlorophenyl)-4-pyrimidinyl]-2-methyl-4-(trifluoromethyl)-1,3-thiazole-5-carboxamide] stands 2.85. Same read-out and setting: under `O=C(Nc1ncncc1-c1ccc(Cl)c(Cl)c1)c1ccccc1C(F)(F)F` [Example 6] stands 2.92; under `O=C(c1ccccc1Cl)N(C(=O)c1ccccc1Cl)c1ncncc1-c1ccc(C(F)(F)F)cc1` [Example 12], 4.12; under `O=C(Nc1ncncc1-c1ccc(Cl)c(Cl)c1)c1ccccc1I` [Example 8], 2.89.

With `O=C(Nc1ncncc1-c1ccc(Br)cc1)c1ccccc1Cl` [Example 9], the chromatographic logP was found to be 2.46.

`O=C(Nc1ncncc1-c1ccc(Br)cc1)c1ccccc1I` [Example 7] showed a chromatographic logP of 2.61. `O=C(Nc1ncncc1-c1ccc(Cl)cc1)c1ccccc1C(F)(F)F` [Example 1, N-[5-(4-chlorophenyl)-4-pyrimidinyl]-2-(trifluoromethyl)benzamide] gave a chromatographic logP of 2.57. Still for that read-out and setting: to `O=C(c1ccccc1Cl)N(C(=O)c1ccccc1Cl)c1ncncc1-c1ccc(Br)cc1` [Example 14] belongs 2.73.

The next data set deals with Pyrenophora teres. Kind of data set: Pyrenophora teres test (barley)/protective. The settings on record: 1000 ppm; young barley plants sprayed; evaluation 8 days after inoculation. It is filed as in vivo. As for the experimental part: as §2
To test for protective activity, young plants are sprayed with the active compound preparation at the stated application rate. After the spray coating has dried on, the plants are sprayed with a conidia suspension of Pyrenophora teres. The plants remain in an incubation cabin at 20° C. and 100% relative atmospheric humidity for 48 hours. The plants are then placed in a greenhouse at a temperature of about 20° C. and a relative atmospheric humidity of about 80%.
Evaluation is carried out 8 days after the inoculation. 0% means an efficacy which corresponds to that of the control, whereas an efficacy of 100% means that no infection is observed.
With `O=C(Nc1ncncc1-c1ccc(Br)cc1)c1ccccc1I` [drawing 92], the Efficacy in % turned out to be 89%. Still for that read-out and setting: to `O=C(Nc1ncncc1-c1ccc(Cl)c(Cl)c1)c1ccccc1I` [drawing 93] belongs 100%.

The next data set relates to Venturia inaequalis. Kind of data set: Venturia test (apple)/protective. The following applies: 100 ppm; young apple plants sprayed; evaluation 10 days after inoculation. It is filed as in vivo. As for the experimental part:
as §1
To test for protective activity, young plants are sprayed with the active compound preparation at the stated application rate. After the spray coating has dried on, the plants are inoculated with an aqueous conidia suspension of the apple scab pathogen Venturia inaequalis and then remain in an incubation cabin at about 20° C. and 100% relative atmospheric humidity for 1 day. The plants are then placed in a greenhouse at about 21° C. and a relative atmospheric humidity of about 90%.
(§4) Evaluation is carried out 10 days after the inoculation. 0% means an efficacy which corresponds to that of the control, whereas an efficacy of 100% means that no infection is observed.
For `O=C(Nc1ncncc1-c1ccc(Cl)c(Cl)c1)c1ccccc1C(F)(F)F` [drawing 98], the Efficacy in % was 95%.

As to `Cc1nc(C(F)(F)F)c(C(=O)Nc2ncncc2-c2ccc(Cl)c(Cl)c2)s1` [drawing 97], the Efficacy in % is reported as 95%.

Another data set has as its system Sphaerotheca fuliginea. Kind of data set: Sphaerotheca test (cucumber)/protective. Format: in vivo. The settings on record: 500 ppm; young cucumber plants sprayed, inoculated one day after treatment; evaluation 7 days after inoculation. As for the experimental part:
as §2
To test for protective activity, young cucumber plants are sprayed with the active compound preparation at the stated application rate. One day after the treatment, the plants are inoculated with a spore suspension of Sphaerotheca fuliginea. The plants are then placed in a greenhouse at 70% relative atmospheric humidity and a temperature of 23° C.
as §3
For the compound `O=C(Nc1ncncc1-c1ccc(Cl)c(Cl)c1)c1ccccc1I` [drawing 74], the Efficacy in % was 100%. Still for that read-out and setting: to `O=C(Nc1ncncc1-c1ccc(Cl)c(Cl)c1)c1ccccc1Cl` [drawing 75] belongs 90%. Same read-out and setting: to `O=C(Nc1ncncc1-c1ccc(Cl)cc1)c1ccccc1C(F)(F)F` [drawing 72] belongs 78%; to `Cn1cc(C(=O)Nc2ncncc2-c2ccc(Cl)c(Cl)c2)c(C(F)(F)F)n1` [drawing 77], 95%; to `O=C(Nc1ncncc1-c1ccc(Br)cc1)c1ccccc1I` [drawing 73], 95%. `O=C(Nc1ncncc1-c1ccc(OC(F)(F)F)cc1)c1ccccc1I` [drawing 76] had an Efficacy in % of 95%.

The next data set relates to Podosphaera leucotricha. Kind of data set: Podosphaera test (apple)/protective. The settings on record: 100 ppm; young apple plants sprayed; evaluation 10 days after inoculation. It is filed as in vivo. As for the experimental part: as §1
To test for protective activity, young plants are sprayed with the active compound preparation at the stated application rate. After the spray coating has dried on, the plants are inoculated with an aqueous spore suspension of the apple mildew pathogen Podosphaera leucotricha. The plants are then placed in a greenhouse at about 23° C. and a relative atmospheric humidity of about 70%.
as §4
Consider `O=C(Nc1ncncc1-c1ccc(Br)cc1)c1ccccc1I` [drawing 94], for which the Efficacy in % turned out to be 87%.

In turn, `O=C(Nc1ncncc1-c1ccc(C(F)(F)F)cc1)c1ccccc1Cl` [drawing 96] showed an Efficacy in % of 93%. The compound `O=C(Nc1ncncc1-c1ccc(Cl)c(Cl)c1)c1ccccc1I` [drawing 95] came in with an Efficacy in % of 93%.
